As usually defined, the MIC is the smallest concentration in the dilution series that meets the test's criterion for growth inhibition. A lower MIC goes with inhibition by little substance.

Bridges are numbered along the chain shown (N, C = ends). Roman numbers before positions name the chains, in order. [ ]: non-standard residue; d: D form. NMeR = CN[C@@H](CCCNC(=N)N)C(=O)O; Api = NC1(C(=O)O)CCNCC1; Dab = NCC[C@H](N)C(=O)O

The values that follow come from patent US20090253633A1, “Novel Combinations of DNAK Inhibitors With Known Antibacterial Agents” (priority 2005, published 2009).

The subject of the experiment is E. coli isolate CHP-04-002EC. The experiment can be described thus: MIC against the E. coli test isolate. In kind it is cell-based. The conditions noted are these: stated as 1×MIC. As for the experimental part:
Growth inhibition assays were performed using the Gram negative E. coli isolate CHP-04-002EC obtained from Laboratory Specialists, Inc. (Westlake, Ohio). […] Untreated bacterial culture served as growth control. At 4, 8, 12 and 24 hrs post-application, the cultures were serially diluted, plated and allowed to grow overnight. Colony forming units (CFU) were determined by counting the number of newly grown colonies and multiplying by the dilution factor.

Regarding “I: H-[Api]DKGSYLPRPTPPRPIYN[NMeR]N[Dab]-NH2 / II: H-[Api]DKGSYLPRPTPPRPIYN[NMeR]N (amide I:21-II:C) [CHP-105]”, the minimum inhibitory concentration (MIC) was found to be 64 µg/mL.
